The values that follow come from PubChem BioAssay AID1996.

Converted amounts (≈) assume the structure as drawn. A value given as a limit tells only on which side of the number the result lay.

The conditions of this data set: buffer; pH 7.4; 200.0 µM.
One may read the solubility (kinetic) as solubility judged after dilution from a stock solution rather than from solid. As to `COc1ccc(NCCc2ccccn2)cc1.Cl`, the kinetic solubility was above 45.2 µg/mL.
In the case of `Cc1ccsc1C(=O)NCCc1ccco1` it was 33.5 µg/mL (≈ 142 µM); in that of `N#Cc1ccccc1NC(=O)CSc1ccc([N+](=O)[O-])cn1`, 0.7 µg/mL (≈ 2.23 µM).
In the case of `CC(=O)Nc1ccc2c(c1)nc(CCNC(=O)c1ccco1)n2C` it was 48.2 µg/mL (≈ 148 µM); in that of `CC1CN(C(=O)Nc2ccc(Br)cc2Cl)CC(C)O1` (stereo not drawn), 30.3 µg/mL (≈ 87.2 µM).
In the case of `CN(C(=O)COc1ncnc2ccccc12)C1CCCCC1` it was 39 µg/mL (≈ 130 µM); in that of `O=C(NC1CCSC1=O)C1CCCCC1` (stereo not drawn), above 34.1 µg/mL.
For `C[N+](C)=C1SCC(C)(/C=N/O)S1.[Br-]` (stereo not drawn), the solubility (kinetic) is above 42.8 µg/mL.
Next, `CCOC(=O)c1ccc(Nc2c(OCC)c(=O)c2=O)cc1`: 21.6 µg/mL (≈ 74.7 µM).
In the case of `CC1CCCN(C(=O)c2ccc3c(c2)OCO3)C1` (stereo not drawn) it was above 37.1 µg/mL; in that of `CCN(CC(=O)NC(C)C)C(=O)[C@@H](NC(=O)c1ccco1)C(C)C`, above 50.6 µg/mL; in that of `Nc1cc(=O)[nH]c(SCC(=O)NC2CCCCCCC2)n1`, above 46.6 µg/mL.
Next, `Cc1ccc(NC(=O)COC(=O)CCc2ccccc2)c(Cl)c1`: 6.9 µg/mL (≈ 20.8 µM); `COC(CNC(=O)c1ccc2nc3ccccc3c(=O)n2c1)OC`: 49 µg/mL (≈ 150 µM); `COc1ccccc1NC(=O)C1CC(C(C)C)OC1=O` (stereo not drawn): 38.3 µg/mL (≈ 138 µM).
`CC(C)Oc1ccc(C(=O)Nc2cccc3cccnc23)cc1` had a kinetic solubility of 1.1 µg/mL (≈ 3.59 µM).
`Cc1[nH]c2ccccc2c1C(=O)CN1C(=O)C(=O)N(C2CCCC2)C1=O` yielded a solubility (kinetic) of 3.2 µg/mL (≈ 9.06 µM).
In the case of `CC(=O)N1CCN(Cc2ccc(Cl)nc2)CC1`, the solubility (kinetic) was above 38.1 µg/mL.
In the case of `Cc1cc(Sc2ccc([N+](=O)[O-])cn2)ccc1Br` it was below 0.3 µg/mL; in that of `CN(C)/C=C/C(=O)c1ccc(-n2cccc2)cc1`, above 36 µg/mL; in that of `O=C(O)CCCC(=O)Nc1cccc([N+](=O)[O-])c1`, above 37.8 µg/mL.
`COC(=O)CSC(=S)N1C(C)CCCC1C` (stereo not drawn) showed a solubility (kinetic) of 31.1 µg/mL (≈ 119 µM).
In the case of `CCc1ccc(C(=O)Nc2nc(C)cs2)s1` it was 32.9 µg/mL (≈ 130 µM).
Next, `COc1ccc(C(=O)N2CCC(C(=O)NC3CC3)CC2)cc1`: above 45.4 µg/mL.
In the case of `CCOP(=O)(OCC)C(Nc1ccc(C(=O)O)cc1)c1ccccc1` (stereo not drawn) it was above 54.5 µg/mL.
The molecule `S=C(NCc1ccco1)N1CCN(c2ccccn2)CC1` gave a solubility (kinetic) of 42.5 µg/mL (≈ 141 µM).
In the case of `O=C1CNC(=S)N1CCCn1ccnc1` it was 31.5 µg/mL (≈ 140 µM); in that of `CCOc1ccc(-c2cnc3n2CCCCC3)cc1`, 32 µg/mL (≈ 125 µM).
Next, `CCN(c1ccccc1)S(=O)(=O)c1ccc(Cl)c(NC(=O)CNC(C)c2ccccc2)c1` (stereo not drawn): 3.2 µg/mL (≈ 6.78 µM); `N[C@H]1CONC1=O`: above 15.3 µg/mL; `O=C(O)c1cc(-c2ccccc2Cl)n(-c2ccc(F)cc2)n1`: above 47.5 µg/mL.
Next, `COc1ccc(NC(=O)CN(C)C(=O)C2=COCCO2)cc1`: above 45.9 µg/mL; `CN(C)Cc1c(O)ccc2c1O/C(=C\C=C\c1ccccc1)C2=O`: 46.8 µg/mL (≈ 146 µM).
The molecule `Cc1ccsc1C(=O)NNC(=S)NC1CCCCC1` yielded a kinetic solubility above 44.6 µg/mL.
Next, `COc1ccc2[nH]c(C(=O)NCCc3ccccc3)cc2c1`: 1 µg/mL (≈ 3.4 µM).
Next, `Cc1cc(Br)ccc1NC(=O)CNC(=O)CSc1nccn1C`: above 59.6 µg/mL; `Cc1cccc(NC(=O)CN2C(=O)NC3(CCCCCCC3)C2=O)c1C`: 49 µg/mL (≈ 137 µM); `COc1cc(C2(c3ccc(O)c(OC)c3)C(=O)N(C)c3ccc(C)cc32)ccc1O`: 51.4 µg/mL (≈ 127 µM).
Turning to `N#Cc1ccc(NC(=O)CN2C(=O)NC3(CCCC3)C2=O)cc1Cl`, the solubility (kinetic) amounted to 46.1 µg/mL (≈ 133 µM).
In the case of `CC(C)C(=O)Nc1oc(-c2ccccc2)cc1C#N` it was 10.5 µg/mL (≈ 41.3 µM); in that of `COc1ccccc1CNC1CCN(Cc2ccccc2)CC1`, above 46.6 µg/mL.
`CN1C(=O)NC(=O)/C(=C/c2ccc(C(=O)O)cc2)C1=O` returned a kinetic solubility above 41.1 µg/mL.
In the case of `COc1ccc(C(=O)Nc2cccc(OC(=O)c3ccco3)c2)cc1` it was 3.2 µg/mL (≈ 9.49 µM); in that of `COc1cccc(C=O)c1OC(=O)N1CCOCC1`, above 39.8 µg/mL.
`C=CCn1c(O)c(C(C)=Nc2cccc(C(=O)O)c2)c(=O)[nH]c1=O`: the kinetic solubility is above 49.4 µg/mL.
In the case of `Cc1cc(C)c2nc(C)cc(Nc3ccc(C(=O)N(C)C)cc3)c2c1` it was 5.6 µg/mL (≈ 16.8 µM); in that of `O=[N+]([O-])c1cccc(P(=O)(O)c2cccc([N+](=O)[O-])c2)c1`, above 46.2 µg/mL; in that of `CCN(CC)c1ccc(/C=C2\C(=O)NC(=S)N(c3ccc(OC)cc3OC)C2=O)o1`, 56 µg/mL (≈ 130 µM).
Next, `COC(=O)C(C)Oc1ccc(Cl)c(CN2OCC(C)(C)C2=O)c1` (stereo not drawn): above 51.3 µg/mL.
Next, `O=C(/C=C/c1ccccc1)NC(=S)Nc1ccccc1`: below 0.3 µg/mL.
Molecule `CN(C(=O)CSc1nc2ccccc2c(=O)n1C)C1CCS(=O)(=O)C1` (stereo not drawn) had a kinetic solubility above 57.2 µg/mL.
Next, `O=C(CSc1nc2ccccc2c(=O)n1CCCN1CCOCC1)Nc1ccc(Br)cc1`: 5.3 µg/mL (≈ 10.2 µM).
In the case of `O=C(COC(=O)c1ccco1)Nc1cccc(S(=O)(=O)N2CCCCC2)c1` it was 54.5 µg/mL (≈ 139 µM).
Next, `Cc1ncc([N+](=O)[O-])n1S(=O)(=O)c1cc(Cl)ccc1Cl`: 40.3 µg/mL (≈ 120 µM).
On to `Cc1csc(NC(=O)CSc2nncs2)n1`, for which the kinetic solubility is above 40.9 µg/mL.
The molecule `O=C(Nc1ccc(Cl)c(Cl)c1)Nc1ccccc1O` displayed a kinetic solubility of 8.5 µg/mL (≈ 28.6 µM).
In the case of `Cc1ccc(C(O)c2nc3ccccc3n2C)cc1` (stereo not drawn) it was above 37.8 µg/mL; in that of `O=C(COC(=O)c1cccnc1)NC1CCCc2ccccc21` (stereo not drawn), 39.3 µg/mL (≈ 127 µM).
Next, `O=C(Nc1csc(Cl)c1)c1ccccc1`: 6.2 µg/mL (≈ 26.1 µM).
The molecule `C/C(=N\NC(=O)CCC(=O)NCc1ccccc1)c1ccco1` yielded a solubility (kinetic) above 47 µg/mL.
Next, `Cc1cc2nc(-c3ccc[nH]c3=O)n(Cc3cccc(F)c3)c2cc1C`: 1.3 µg/mL (≈ 3.74 µM).
In the case of `CCOC(=O)c1c(N)sc2c1CCN(CCc1ccccc1)C2` it was 31.7 µg/mL (≈ 95.9 µM); in that of `Cc1ccc(C(=O)OCC(=O)NCc2ccc(F)cc2)o1`, above 43.7 µg/mL; in that of `CS(=O)(=O)N1CCCC(C(=O)Nc2ccc(F)c(F)c2)C1` (stereo not drawn), above 47.8 µg/mL.
In the case of `COc1cc(C(=O)NCC2CCCCC2)cc(OC)c1OC` it was 12.8 µg/mL (≈ 41.6 µM); in that of `Cc1nn(-c2ccccc2)c(Cl)c1C(=O)N1CCN(C)CC1`, above 47.8 µg/mL.
As to `CC(OC(=O)c1ccc(Cl)nc1)C(=O)Nc1ccc2c(c1)OCO2` (stereo not drawn), the kinetic solubility is 11.9 µg/mL (≈ 34.1 µM).
In the case of `CCOC(=O)C(=O)c1c(-c2ccccc2)nc2ccccn12` it was 33.7 µg/mL (≈ 115 µM); in that of `CCC(=O)OCCn1c(=O)c2ccccc2c2ccccc2c1=O`, above 48.5 µg/mL.
Next, `COc1ccccc1Nc1nc(N)nc(CN2CC(C)CC(C)C2)n1` (stereo not drawn): 14 µg/mL (≈ 40.9 µM); `CCOc1c(N2CC(C)OC(C)C2)c(=O)c1=O` (stereo not drawn): above 35.9 µg/mL; `COc1ccc(-c2ncncc2-c2ccc(Cl)cc2)c(O)c1`: 1.1 µg/mL (≈ 3.52 µM).
Next, `COc1ccccc1NC(=O)COc1ccc2c(c1)OCO2`: 2.5 µg/mL (≈ 8.3 µM); `Cc1ccc(S(=O)(=O)NC(=O)c2ccccc2F)cc1`: above 44 µg/mL; `CNC(=S)Nc1ccc([N+](=O)[O-])c(C)c1`: 32.3 µg/mL (≈ 143 µM).
`COc1ccc(C(=O)N2CCCC(C(=O)O)C2)c2ccccc12` (stereo not drawn) yielded a solubility (kinetic) above 47 µg/mL.
In the case of `Cc1ccccc1C(=O)c1cccn1CC(=O)NCc1ccccc1` it was 12.7 µg/mL (≈ 38.2 µM).
On to `CC(C)c1ccc(NC(=O)CC2Oc3ccccc3NC2=O)cc1` (stereo not drawn), for which the solubility (kinetic) was 1.3 µg/mL (≈ 4.01 µM).
In the case of `Cc1ccnc(NCc2cc(C)ccc2O)c1` it was 6 µg/mL (≈ 26.3 µM).
Next, `Cc1ccc(-n2c(O)c(C=NCc3ccco3)c(=O)[nH]c2=S)cc1C`: 11.1 µg/mL (≈ 31.2 µM); `Cc1ccc(-c2c[n+]3c(n2-c2ccccc2)CCC3)cc1.[Br-]`: above 53.3 µg/mL; `O=S1(=O)C[C@@H](O)[C@@H](Nc2ccccc2)C1`: above 34.1 µg/mL.
In the case of `CN1C(=O)C2(OCCCO2)c2cc(Cl)ccc21` it was above 38.1 µg/mL; in that of `COC(=O)c1cc(N=C(N)N=C(N)N)cc(C(=O)OC)c1`, above 44 µg/mL.
In turn, `O=S(=O)(c1ccccc1)N(CC1CO1)c1cc(Cl)ccc1Cl` (stereo not drawn) came in with a kinetic solubility of 36.4 µg/mL (≈ 102 µM).
Next, `O=C(O)c1cc(-c2ccccc2)nc(-c2ccccc2)c1`: above 41.3 µg/mL.
Next, `O=C(Nc1ccccc1Oc1ccccc1)c1cccs1`: 15.2 µg/mL (≈ 51.5 µM); `Cc1ccc[n+](CC(=O)Nc2nc3ccccc3s2)c1.[Cl-]`: above 48 µg/mL; `COc1ccc(C(=O)CCC(=O)Nc2cccc(Cl)c2)cc1`: 3.4 µg/mL (≈ 10.7 µM).
Next, `CC(=O)Nc1ccc(S(=O)(=O)N(C)CC(=O)NNC(=O)Cc2nc3ccccc3n2C)cc1`: above 70.9 µg/mL.
`COC(=O)/N=C(/Cc1ccc(OC)cc1)c1ccc(OC)cc1` had a kinetic solubility of 43.6 µg/mL (≈ 139 µM).
`Cc1ccc(S(=O)(=O)N2CCCCC2)cc1C(=O)NCc1ccc(S(N)(=O)=O)cc1`: the solubility (kinetic) came out at 2.8 µg/mL (≈ 6.2 µM).
In the case of `Cn1cc(C(=O)N2CCOCC2)c2ccccc21` it was above 36.6 µg/mL; in that of `CC(C)(C)c1ccc(NC(=O)CON=C(N)c2ccccc2)cc1`, 3.8 µg/mL (≈ 11.7 µM); in that of `COC(=O)c1[nH]c2ccccc2c1NC(=O)C(C)N1CC(C)OC(C)C1` (stereo not drawn), above 53.9 µg/mL.
In the case of `COc1ccc(/C=C/C(=O)NC(=S)N2CCSCC2)cc1` it was 11.1 µg/mL (≈ 34.4 µM).
Next, `Cc1ccc(/C(O)=C2\C(=O)C(=O)N(CC(C)O)C2c2ccccn2)cc1` (stereo not drawn): above 52.9 µg/mL; `c1csc(-c2nc(-c3ccc(-c4ccon4)s3)no2)c1`: 0.5 µg/mL (≈ 1.66 µM).
`CCCCN1C(=O)C2(OCCCO2)c2cccc(C)c21` displayed a solubility (kinetic) of 25.1 µg/mL (≈ 91.2 µM).
In the case of `CC(C)(C)NC(=O)C(=O)NCc1ccccn1` it was above 35.3 µg/mL.
Next, `O=C1CN(C(=O)COC(=O)COc2ccccc2)c2ccccc2N1`: above 51.1 µg/mL.
Next, `CCCCN1C(=O)C(=O)N(CC(=O)Nc2ccccc2C(C)=O)C1=O`: above 51.8 µg/mL; `O=Cc1ccc(-c2ccc([N+](=O)[O-])cc2Cl)o1`: 5.2 µg/mL (≈ 20.7 µM).
